According to patent US20040110763A1, “Pyrazolopyridine compound and pharmaceutical use thereof” (priority 2000, published 2004):

melting point [°C] | SMILES
126.5 to 127.5 | CCOCCNC(=O)COc1ccn2nc(-c3ccccc3)c(-c3ccc(=O)n(C(C)C)n3)c2c1 [Example 67, N-(2-Ethoxyethyl)-2-{[3-(3-oxo-2-isopropyl-2,3-dihydropyridazin-6-yl)-2-phenylpyrazolo[1,5-a]pyridin-5-yl]oxy}acetamide]
186 to 187 | COC(=O)c1ccn2nc(-c3ccccc3)c(-c3ccc(=O)n(C(C)C)n3)c2c1 [Example 69, methyl 3-(3-oxo-2-isopropyl-2,3-dihydropyridazin-6-yl)-2-phenylpyrazolo[1,5-a]pyridine-5-carboxylate]
202 to 203 | CC(C)n1nc(-c2c(-c3ccccc3)nn3ccc(C#N)cc23)ccc1=O [Example 71, 3-(3-oxo-2-isopropyl-2,3-dihydropyridazin-6-yl)-2-phenylpyrazolo[1,5-a]pyridine-5-carbonitrile]
189 to 190 | CC(C)n1nc(-c2c(-c3ccccc3)nn3ccc(C(=O)N4CCCC4)cc23)ccc1=O [Example 73, 5-(1-pyrrolidinylcarbonyl)-3-(3-oxo-2-isopropyl-2,3-dihydropyridazin-6-yl)-2-phenylpyrazolo[1,5-a]pyridine]
157 to 158 | CC(C)n1nc(-c2c(-c3ccccc3)nn3ccc(C(=O)NCCN(C)C)cc23)ccc1=O [Example 76, N-[2-(Dimethylamino)ethyl]-3-(3-oxo-2-isopropyl-2,3-dihydropyridazin-6-yl)-2-phenylpyrazolo[1,5-a]pyridine-5-carboxamide]
149 to 150 | CCOCCNC(=O)c1ccn2nc(-c3ccccc3)c(-c3ccc(=O)n(C(C)C)n3)c2c1 [Example 78, N-(2-Ethoxyethyl)-3-(3-oxo-2-isopropyl-2,3-dihydropyridazin-6-yl)-2-phenylpyrazolo[1,5-a]pyridine-5-carboxamide]
200 to 201 | CC(C)n1nc(-c2c(-c3ccccc3)nn3ccc(C(=O)NC(C)(C)C)cc23)ccc1=O [Example 83, N-(tert-Butyl)-3-(3-oxo-2-isopropyl-2,3-dihydropyridazin-6-yl)-2-phenylpyrazolo[1,5-a]pyridine-5-carboxamide]
184 to 185 | CC(C)n1nc(-c2c(-c3ccccc3)nn3ccc(C(=O)N4CCC(c5ccccc5)CC4)cc23)ccc1=O [Example 84, 5-[(4-Phenyl-1-piperidinyl)carbonyl]-3-(3-oxo-2-isopropyl-2,3-dihydropyridazin-6-yl)-2-phenylpyrazolo[1,5-a]-pyridine]
157 to 158 | CCN(CC)C(=O)c1ccn2nc(-c3ccccc3)c(-c3ccc(=O)n(C(C)C)n3)c2c1 [Example 85, N,N-Diethyl-3-(3-oxo-2-isopropyl-2,3-dihydropyridazin-6-yl)-2-phenylpyrazolo[1,5-a]pyridine-5-carboxamide]
124 to 125 | CC(C)OCCNC(=O)c1ccn2nc(-c3ccccc3)c(-c3ccc(=O)n(C(C)C)n3)c2c1 [Example 86, N-(2-Isopropoxyethyl)-3-(3-oxo-2-isopropyl-2,3-dihydropyridazin-6-yl)-2-phenylpyrazolo[1,5-a]pyridine-5-carboxamide]
192 to 193 | CC(C)n1nc(-c2c(-c3ccccc3)nn3ccc(C(=O)NCc4cccnc4)cc23)ccc1=O [Example 87, N-(3-Pyridinylmethyl)-3-(3-oxo-2-isopropyl-2,3-dihydropyridazin-6-yl)-2-phenylpyrazolo[1,5-a]pyridine-5-carboxamide]
225 to 226 | CNC(=O)c1ccn2nc(-c3ccccc3)c(-c3ccc(=O)n(C(C)C)n3)c2c1 [Example 88, N-Methyl-3-(3-oxo-2-isopropyl-2,3-dihydropyridazin-6-yl)-2-phenylpyrazolo[1,5-a]pyridine-5-carboxamide]
185 to 186 | CC(C)n1nc(-c2c(-c3ccccc3)nn3ccc(C(=O)N4CCCCC4)cc23)ccc1=O [Example 89, 5-(1-Piperidinylcarbonyl)-3-(3-oxo-2-isopropyl-2,3-dihydropyridazin-6-yl)-2-phenylpyrazolo[1,5-a]pyridine]
156 to 157 | CC(C)n1nc(-c2c(-c3ccccc3)nn3ccc(C(=O)NCCOc4ccccc4)cc23)ccc1=O [Example 92, N-(2-Phenoxyethyl)-3-(3-oxo-2-isopropyl-2,3-dihydropyridazin-6-yl)-2-phenylpyrazolo[1,5-a]pyridine-5-carboxamide]
230 to 232 | CC(C)NC(=O)c1ccn2nc(-c3ccccc3)c(-c3ccc(=O)n(C(C)C)n3)c2c1 [Example 95, N-Isopropyl-3-(3-oxo-2-isopropyl-2,3-dihydropyridazin-6-yl)-2-phenylpyrazolo[1,5-a]pyridine-5-carboxamide]
182 to 187 | CC(C)n1nc(-c2c(-c3ccccc3)nn3ccc(N4CCOCC4)cc23)ccc1=O [Example 98, 5-(4-Morpholinyl)-3-(3-oxo-2-isopropyl-2,3-dihydropyridazin-6-yl)-2-phenylpyrazolo[1,5-a]pyridine]

melting point [°C] | SMILES
> 240 | CC(C)n1nc(-c2c(-c3ccccc3)nn3ccc(N4CCN(c5ccccc5)CC4)cc23)ccc1=O [Example 99, 5-(4-Phenyl-1-piperazinyl)-3-(3-oxo-2-isopropyl-2,3-dihydropyridazin-6-yl)-2-phenylpyrazolo[1,5-a]pyridine]
176 to 177 | CC(C)n1nc(-c2c(-c3ccccc3)nn3ccc(N4C[C@@H](C)O[C@@H](C)C4)cc23)ccc1=O [Example 100, 5-(cis-2,6-Dimethyl-4-morpholinyl)-3-(3-oxo-2-isopropyl-2,3-dihydropyridazin-6-yl)-2-phenylpyrazolo[1,5-a]-pyridine]
213 to 215 | CC(C)n1nc(-c2c(-c3ccccc3)nn3ccc(N4CCC(O)CC4)cc23)ccc1=O [Example 101, 5-(4-Hydroxy-1-piperidinyl)-3-(3-oxo-2-isopropyl-2,3-dihydropyridazin-6-yl)-2-phenylpyrazolo[1,5-a]pyridine]
221 to 222 | CC(C)n1nc(-c2c(-c3ccccc3)nn3ccc(N4CCN(c5ccccn5)CC4)cc23)ccc1=O [Example 102, 5-[4-(2-Pyridinyl)-1-piperazinyl]-3-(3-oxo-2-isopropyl-2,3-dihydropyridazin-6-yl)-2-phenylpyrazolo[1,5-a]pyridine]
163 to 164 | CC(C)n1nc(-c2c(-c3ccccc3)nn3ccc(N4CCN(C(=O)OC(C)(C)C)CC4)cc23)ccc1=O [Example 104, tert-Butyl 4-[3-(3-oxo-2-isopropyl-2,3-dihydropyridazin-6-yl)-2-phenylpyrazolo[1,5-a]pyridin-5-yl]-1-piperazinecarboxylate]
136 to 138 | CC(C)n1nc(-c2c(-c3ccccc3)nn3ccc(N4CCN(Cc5ccccc5)CC4)cc23)ccc1=O [Example 105, 5-(4-Benzyl-1-piperazinyl)-3-(3-oxo-2-isopropyl-2,3-dihydropyridazin-6-yl)-2-phenylpyrazolo[1,5-a]pyridine]
177 to 178 | COC1CCN(c2ccn3nc(-c4ccccc4)c(-c4ccc(=O)n(C(C)C)n4)c3c2)CC1 [Example 106, 5-(4-methoxy-1-piperidinyl)-3-(3-oxo-2-isopropyl-2,3-dihydropyridazin-6-yl)-2-phenylpyrazolo[1,5-a]pyridine]
203 to 204 | CC(C)n1nc(-c2c(-c3ccccc3)nn3ccc(N4CCNCC4)cc23)ccc1=O [Example 107, 5-(1-piperazinyl)-3-(3-oxo-2-isopropyl-2,3-dihydropyridazin-6-yl)-2-phenylpyrazolo[1,5-a]pyridine]
206 to 207 | COC(=O)N1CCN(c2ccn3nc(-c4ccccc4)c(-c4ccc(=O)n(C(C)C)n4)c3c2)CC1 [Example 108, methyl 4-[3-(3-oxo-2-isopropyl-2,3-dihydropyridazin-6-yl)-2-phenylpyrazolo[1,5-a]pyridin-5-yl]-1-piperazinecarboxylate]
160 to 161 | CC(C)n1nc(-c2c(-c3ccccc3)nn3ccc(N4CCN(C(=O)N(C)C)CC4)cc23)ccc1=O [Example 109, 4-[3-(3-oxo-2-isopropyl-2,3-dihydropyridazin-6-yl)-2-phenylpyrazolo[1,5-a]pyridin-5-yl]-N,N-dimethyl-1-piperazinecarboxamide]
219 to 220 | CC(C)n1nc(-c2c(-c3ccccc3)nn3ccc(N4CCN(S(C)(=O)=O)CC4)cc23)ccc1=O [Example 110, 5-[4-(Methylsulfonyl)-1-piperazinyl]-3-(3-oxo-2-isopropyl-2,3-dihydropyridazin-6-yl)-2-phenylpyrazolo[1,5-a]pyridine]
219 to 220 | CC(C)n1nc(-c2c(-c3ccccc3)nn3ccc(N4CCN(S(=O)(=O)c5ccccc5)CC4)cc23)ccc1=O [Example 111, 5-[4-(Phenylsulfonyl)-1-piperazinyl]-3-(3-oxo-2-isopropyl-2,3-dihydropyridazin-6-yl)-2-phenylpyrazolo[1,5-a]pyridine]
124 to 126 | CC(C)n1nc(-c2c(-c3ccccc3)nn3ccc(N4CCN(C(=O)c5ccccc5)CC4)cc23)ccc1=O [Example 112, 5-(4-Benzoyl-1-piperazinyl)-3-(3-oxo-2-isopropyl-2,3-dihydropyridazin-6-yl)-2-phenylpyrazolo[1,5-a]pyridine]
148 to 149 | CC(=O)N1CCN(c2ccn3nc(-c4ccccc4)c(-c4ccc(=O)n(C(C)C)n4)c3c2)CC1 [Example 113, 5-(4-Acetyl-1-piperazinyl)-3-(3-oxo-2-isopropyl-2,3-dihydropyridazin-6-yl)-2-phenylpyrazolo[1,5-a]pyridine]
129 to 130 | CC(C)n1nc(-c2c(-c3ccccc3)nn3ccc(N4CCN(C(=O)CN(C)C)CC4)cc23)ccc1=O [Example 114, 5-{4-[(dimethylamino)acetyl]-1-piperazinyl}-3-(3-oxo-2-isopropyl-2,3-dihydropyridazin-6-yl)-2-phenylpyrazolo[1,5-a]pyridine]
183 to 184 | COc1ccn2nc(-c3ccccc3)c(-c3ccc(=O)n(C)n3)c2c1 [Example 115, 5-Methoxy-3-(3-oxo-2-methyl-2,3-dihydropyridazin-6-yl)-2-phenylpyrazolo[1,5-a]pyridine]
